What all share (experiment): Antimicrobial susceptibility testing (NCCLS M7-A5), MIC
What all share (format): cell-based

Assay [1] concerns Enterococcus faecalis ATCC 29212. The note with it: ATCC29212, in vitro, read-out: Minimum Inhibitory Concentration (MIC). Here is the method: (§1) Antimicrobial susceptibility testing was performed in accordance with the National Committee for Clinical Laboratory Standards (NCCLS) procedure [M7-A5, 2001]. […] Methods for Dilution Antimicrobial Susceptibility Tests for Bacteria That Grow Aerobically; Approved Standard—Fifth Edition American National Standard

The subject of assay [2] is Bacillus subtilis ATCC 6051. The note with it: ATCC6051, in vitro, read-out: Minimum Inhibitory Concentration (MIC). Here is the method: as §1
Assay [3] deals with Streptococcus pneumoniae ATCC 49619. Particulars: ATCC49619, in vitro, read-out: Minimum Inhibitory Concentration (MIC). Here is the method: as §1
Assay [4] relates to Staphylococcus aureus ATCC 25923. The note with it: ATCC25923, in vitro, read-out: Minimum Inhibitory Concentration (MIC). Here is the method:
as §1

Assay [5] concerns Staphylococcus epidermidis ATCC 12228. Particulars: ATCC12228, in vitro, read-out: Minimum Inhibitory Concentration (MIC). Here is the method:
as §1

The subject of assay [6] is Escherichia coil ATCC 25922. The note with it: ATCC25922, in vitro, read-out: Minimum Inhibitory Concentration (MIC). Here is the method:
as §1

Among the data in US7030130B2, “Benzofuran derivatives and their use as antibacterial agents” (Arpida AG, priority 2000, dated 2006) are MIC values, retold here.

Values after ≈ are worked out from the molar mass of the structure shown.

Turning to `COc1cc(Cc2cnc(N)nc2N)c2cc(CC3CC3)oc2c1OC` [Example 20, 5-(2-Cyclopropylmethyl-6,7-dimethoxy-benzofuran-4-ylmethyl)-pyrimidine-2,4-diamine], the MIC in assay [1] was 0.5 µg/mL (≈ 1.41 µM); in assay [2], 0.062 µg/mL (≈ 0.175 µM); in assay [3], 0.125 µg/mL (≈ 0.353 µM); in assay [4], 0.062 µg/mL (≈ 0.175 µM); in assay [5] it was 0.062 µg/mL (≈ 0.175 µM); in assay [6], 4 µg/mL (≈ 11.3 µM).
For `COc1cc(Cc2cnc(N)nc2N)c2cc(Cc3ccccc3)oc2c1OC` [Example 21, 5-(2-Benzyl-6,7-dimethoxy-benzofuran-4-ylmethyl)-pyrimidine-2,4-diamine], the MIC in assay [1] is 0.125 µg/mL (≈ 0.32 µM); in assay [2], 0.062 µg/mL (≈ 0.159 µM); in assay [3] it was 0.5 µg/mL (≈ 1.28 µM); in assay [4], 0.062 µg/mL (≈ 0.159 µM); in assay [5], 0.062 µg/mL (≈ 0.159 µM); in assay [6] it was 2 µg/mL (≈ 5.12 µM).
Consider `COc1cc(Cc2cnc(N)nc2N)c2cc(Cc3ccc(F)cc3)oc2c1OC` [Example 72, 5-[2-(4-fluoro-benzyl)-6,7-dimethoxy-benzofuran-4-ylmethyl]-pyrimidine-2,4-diamine], for which the MIC in assay [1] turned out to be 1 µg/mL (≈ 2.45 µM); in assay [2], 0.25 µg/mL (≈ 0.612 µM); in assay [3], 0.5 µg/mL (≈ 1.22 µM); in assay [4], 0.25 µg/mL (≈ 0.612 µM); in assay [5], 0.015 µg/mL (≈ 0.0367 µM); in assay [6], 2 µg/mL (≈ 4.9 µM).
`COc1cc(Cc2cnc(N)nc2N)cc(OC)c1OC` [Trimethoprim, 2,4-diamino-5-(3,4,5-trimethoxybenzyl)pyrimidine, reference compound]: the MIC turned out to be 0.5 µg/mL (≈ 1.72 µM) in assay [1]; 0.5 µg/mL (≈ 1.72 µM) in assay [2]; 2 µg/mL (≈ 6.89 µM) in assay [3]; 2 µg/mL (≈ 6.89 µM) in assay [4]; 0.062 µg/mL (≈ 0.214 µM) in assay [5]; 0.25 µg/mL (≈ 0.861 µM) in assay [6].
